Where “and” joins values, the source holds several entries; their conditions need not be identical. Equal entries are not always repeated. Inconclusive results and toxic doses are left out.
System: CD2F1 mice, L1210 leukemia ip, survival T/C
Experiment: NCI In Vivo Anticancer Drug Screen. Data for tumor model L1210 Leukemia (intraperitoneal) in CD2F1 (CDF1) mice
Conditions: higher = longer survival
How it was run: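 Tumor-bearing mice (transplanted tumor) were split into treated and vehicle control groups, and the measured endpoint of each treated group was divided by that of its vehicle controls.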

[1] = endpoint: mean survival time, dose: 400.0 mg/kg/injection, schedule: Q04DX003 (ip), vehicle: saline with Tween-80
[2] = endpoint: mean survival time, dose: 100.0 mg/kg/injection, schedule: Q01DX009 (ip), vehicle: saline with Tween-80
[3] = endpoint: mean survival time, dose: 200.0 mg/kg/injection, schedule: Q01DX009 (ip), vehicle: saline with Tween-80
[4] = endpoint: mean survival time, dose: 400.0 mg/kg/injection, schedule: Q01DX009 (ip), vehicle: saline with Tween-80
[5] = endpoint: mean survival time, dose: 100.0 mg/kg/injection, schedule: Q01DX001 (ip), vehicle: saline with Tween-80
[6] = endpoint: mean survival time, dose: 100.0 mg/kg/injection, schedule: Q04DX002 (ip), vehicle: saline with Tween-80
[7] = endpoint: mean survival time, dose: 100.0 mg/kg/injection, schedule: Q04DX003 (ip), vehicle: saline with Tween-80
[8] = endpoint: mean survival time, dose: 200.0 mg/kg/injection, schedule: Q01DX001 (ip), vehicle: saline with Tween-80
[9] = endpoint: mean survival time, dose: 200.0 mg/kg/injection, schedule: Q04DX002 (ip), vehicle: saline with Tween-80
[10] = endpoint: mean survival time, dose: 200.0 mg/kg/injection, schedule: Q04DX003 (ip), vehicle: saline with Tween-80
[11] = endpoint: mean survival time, dose: 400.0 mg/kg/injection, schedule: Q04DX002 (ip), vehicle: saline with Tween-80
[12] = endpoint: mean survival time, dose: 100.0 mg/kg/injection, schedule: Q01DX001 (ip), vehicle: saline
[13] = endpoint: mean survival time, dose: 200.0 mg/kg/injection, schedule: Q01DX001 (ip), vehicle: saline
[14] = endpoint: mean survival time, dose: 100.0 mg/kg/injection, schedule: Q04DX003 (ip), vehicle: other
[15] = endpoint: mean survival time, dose: 200.0 mg/kg/injection, schedule: Q04DX003 (ip), vehicle: other
[16] = endpoint: mean survival time, dose: 400.0 mg/kg/injection, schedule: Q04DX003 (ip), vehicle: other

CCCOC(=O)c1cc([N+](=O)[O-])c(Sc2ncnc3nc[nH]c23)c([N+](=O)[O-])c1
T/C (endpoint: mean survival time, dose: 0.63 mg/kg/injection, schedule: Q01DX005 (ip), vehicle: other): 109 % of control | T/C (endpoint: mean survival time, dose: 1.25 mg/kg/injection, schedule: Q01DX005 (ip), vehicle: other): 116 % of control | T/C (endpoint: mean survival time, dose: 2.5 mg/kg/injection, schedule: Q01DX005 (ip), vehicle: other): 111 % of control | T/C (endpoint: mean survival time, dose: 5.0 mg/kg/injection, schedule: Q01DX005 (ip), vehicle: other): 111 % of control | T/C (endpoint: mean survival time, dose: 10.0 mg/kg/injection, schedule: Q01DX005 (ip), vehicle: other): 121 % of control | T/C (endpoint: mean survival time, dose: 62.5 mg/kg/injection, schedule: Q01DX005 (ip), vehicle: other): 165 % of control | T/C (endpoint: mean survival time, dose: 125.0 mg/kg/injection, schedule: Q01DX005 (ip), vehicle: other): 101 % of control

CC(C)=[C-]N(C)C.[C-]#[O+].[C-]#[O+].[C-]#[O+].[C-]#[O+].[C-]#[O+].[Mn]
T/C (endpoint: mean survival time, dose: 12.5 mg/kg/injection, schedule: Q04DX002 (ip), vehicle: saline with Tween-80): 110 % of control | T/C (endpoint: mean survival time, dose: 25.0 mg/kg/injection, schedule: Q04DX002 (ip), vehicle: saline with Tween-80): 103 % of control

Nc1c2c(nn1-c1ccccc1)C(=O)N(CCc1ccccc1)C2
T/C [1]: 90 % of control

O=C(NC(CO)C(O)c1ccc([N+](=O)[O-])cc1)C(Cl)Cl (stereo not drawn)
T/C [2]: 96 % of control | T/C [3]: 104 % of control | T/C [4]: 110 % of control

COc1ccc(OC)c(NC(=O)Nc2cc([N+](=O)[O-])ccc2Cl)c1
T/C [5]: 91 % of control | T/C [2]: 93 % of control and 95 % of control | T/C [6]: 92 % of control and 95 % of control | T/C [7]: 101 % of control | T/C [8]: 88 % of control | T/C [3]: 115 % of control and 98 % of control | T/C [9]: 91 % of control and 96 % of control | T/C [10]: 96 % of control | T/C [4]: 100 % of control and 101 % of control | T/C [11]: 96 % of control and 104 % of control | T/C [1]: 96 % of control

O=C(O)c1ccccc1C(=O)OCC(c1ccccc1)c1ccccc1
T/C [7]: 97 % of control | T/C [10]: 89 % of control

CSC(=O)C(=O)SC
T/C (endpoint: mean survival time, dose: 50.0 mg/kg/injection, schedule: Q01DX001 (ip), vehicle: saline with Tween-80): 100 % of control | T/C [5]: 108 % of control

O=C(O)c1cc2c3ccccc3ncc2c2ccccc12
T/C [7]: 94 % of control | T/C [10]: 100 % of control | T/C [1]: 101 % of control

CCc1ccc2c(c1)N(CCCN(CCCl)CCCl)c1ccccc1S2
T/C (endpoint: mean survival time, dose: 18.0 mg/kg/injection, schedule: Q01DX001 (ip), vehicle: saline): 97 % of control | T/C (endpoint: mean survival time, dose: 28.0 mg/kg/injection, schedule: Q01DX001 (ip), vehicle: saline): 108 % of control | T/C (endpoint: mean survival time, dose: 40.0 mg/kg/injection, schedule: Q01DX001 (ip), vehicle: saline): 103 % of control | T/C (endpoint: mean survival time, dose: 60.0 mg/kg/injection, schedule: Q01DX001 (ip), vehicle: saline with Tween-80): 90 % of control

O=C(Nc1cc(Cl)c(Cl)cc1Cl)Nc1cc(Cl)ccc1Oc1ccc(Cl)cc1S(=O)(=O)O
T/C [5]: 96 % of control | T/C [8]: 98 % of control

O=C(Nc1c(Oc2ccc(Cl)cc2Cl)ccc(Cl)c1S(=O)(=O)O)Nc1c(Oc2ccc(Cl)cc2Cl)ccc(Cl)c1S(=O)(=O)O
T/C [12]: 94 % of control | T/C [13]: 93 % of control

O=c1[nH]cc(N=Cc2ccccc2Cl)c(=O)[nH]1.[Cl][Pt][Cl]
T/C (endpoint: mean survival time, dose: 3.13 mg/kg/injection, schedule: Q04DX003 (ip), vehicle: distilled water + Tween-80): 94 % of control | T/C (endpoint: mean survival time, dose: 6.25 mg/kg/injection, schedule: Q04DX003 (ip), vehicle: distilled water + Tween-80): 97 % of control | T/C (endpoint: mean survival time, dose: 12.5 mg/kg/injection, schedule: Q04DX003 (ip), vehicle: distilled water + Tween-80): 88 % of control | T/C (endpoint: mean survival time, dose: 25.0 mg/kg/injection, schedule: Q04DX003 (ip), vehicle: distilled water + Tween-80): 96 % of control | T/C (endpoint: mean survival time, dose: 50.0 mg/kg/injection, schedule: Q04DX003 (ip), vehicle: distilled water + Tween-80): 96 % of control | T/C (endpoint: mean survival time, dose: 100.0 mg/kg/injection, schedule: Q04DX003 (ip), vehicle: distilled water + Tween-80): 103 % of control | T/C (endpoint: mean survival time, dose: 200.0 mg/kg/injection, schedule: Q04DX003 (ip), vehicle: distilled water + Tween-80): 94 % of control

C[C@]12CCCC[C@@H]1CC[C@@H]1[C@@H]2[C@@H](O)C[C@]2(C)[C@@H](O)CC[C@@H]12
T/C [7]: 93 % of control | T/C [10]: 101 % of control

Cc1cn(C2CC(O)C(CO)O2)c(=O)[n]([Hg][c]2ccccc2)c1=O (stereo not drawn)
T/C (endpoint: median survival time, dose: 0.79 mg/kg/injection, schedule: Q01DX005 (ip), vehicle: saline): 110 % of control | T/C (endpoint: median survival time, dose: 1.56 mg/kg/injection, schedule: Q01DX005 (ip), vehicle: saline): 103 % of control | T/C (endpoint: median survival time, dose: 3.12 mg/kg/injection, schedule: Q01DX005 (ip), vehicle: saline): 112 % of control | T/C (endpoint: median survival time, dose: 6.25 mg/kg/injection, schedule: Q01DX005 (ip), vehicle: saline): 103 % of control | T/C (endpoint: median survival time, dose: 12.5 mg/kg/injection, schedule: Q01DX005 (ip), vehicle: saline): 103 % of control

Cn1c(=O)c(Br)cc2ccccc21
T/C [12]: 102 % of control | T/C [13]: 96 % of control | T/C (endpoint: mean survival time, dose: 400.0 mg/kg/injection, schedule: Q01DX001 (ip), vehicle: saline): 96 % of control

O=S1(=O)Oc2cccc3cccc1c23
T/C [2]: 95 % of control | T/C [7]: 102 % of control | T/C [3]: 98 % of control | T/C [10]: 102 % of control | T/C [4]: 92 % of control | T/C [1]: 103 % of control

C=CCC(C)C(C)C (stereo not drawn)
T/C (endpoint: mean survival time, dose: 50.0 mg/kg/injection, schedule: Q01DX009 (ip), vehicle: saline): 96 % of control | T/C (endpoint: mean survival time, dose: 100.0 mg/kg/injection, schedule: Q01DX009 (ip), vehicle: saline): 100 % of control | T/C (endpoint: mean survival time, dose: 200.0 mg/kg/injection, schedule: Q01DX009 (ip), vehicle: saline): 100 % of control

Oc1ccc(/C=N/NC(=S)Nc2cccnc2)nc1
T/C [6]: 87 % of control | T/C [9]: 87 % of control | T/C [11]: 91 % of control

Cc1ccc(CSCc2ccc(C)cc2)cc1
T/C [14]: 100 % of control | T/C [15]: 107 % of control | T/C [16]: 97 % of control

CN(C)C(=S)SCc1ccccc1
T/C [14]: 111 % of control | T/C [15]: 103 % of control | T/C [16]: 112 % of control

CN=C(N)N/N=C/c1ccccc1
T/C (endpoint: mean survival time, dose: 7.5 mg/kg/injection, schedule: Q04DX003 (ip), vehicle: saline): 95 % of control | T/C (endpoint: mean survival time, dose: 15.0 mg/kg/injection, schedule: Q04DX003 (ip), vehicle: saline): 97 % of control | T/C (endpoint: mean survival time, dose: 30.0 mg/kg/injection, schedule: Q04DX003 (ip), vehicle: saline): 112 % of control

Brc1ccccc1CCc1ccccc1Br
T/C (endpoint: mean survival time, dose: 50.0 mg/kg/injection, schedule: Q04DX003 (ip), vehicle: saline): 97 % of control | T/C (endpoint: mean survival time, dose: 100.0 mg/kg/injection, schedule: Q04DX003 (ip), vehicle: saline): 95 % of control | T/C (endpoint: mean survival time, dose: 200.0 mg/kg/injection, schedule: Q04DX003 (ip), vehicle: saline): 100 % of control

O=C1NC(O)CCN1C1OC(CO)C(O)C1O (stereo not drawn)
T/C (endpoint: median survival time, dose: 10.0 mg/kg/injection, schedule: Q01DX009 (ip), vehicle: saline): 106 % of control and 107 % of control | T/C (endpoint: median survival time, dose: 12.5 mg/kg/injection, schedule: Q01DX001 (oral), vehicle: saline): 101 % of control | T/C (endpoint: median survival time, dose: 21.88 mg/kg/injection, schedule: Q01DX009 (ip), vehicle: saline): 102 % of control | T/C (endpoint: median survival time, dose: 25.0 mg/kg/injection, schedule: Q01DX001 (oral), vehicle: saline): 102 % of control | T/C (endpoint: median survival time, dose: 30.0 mg/kg/injection, schedule: Q01DX009 (ip), vehicle: saline): 104 % of control | T/C (endpoint: median survival time, dose: 50.0 mg/kg/injection, schedule: Q01DX001 (oral), vehicle: saline): 101 % of control | T/C (endpoint: median survival time, dose: 100.0 mg/kg/injection, schedule: Q01DX001 (oral), vehicle: saline): 97 % of control | T/C (endpoint: median survival time, dose: 100.0 mg/kg/injection, schedule: Q01DX009 (ip), vehicle: saline): 105 % of control | T/C (endpoint: median survival time, dose: 200.0 mg/kg/injection, schedule: Q01DX001 (oral), vehicle: saline): 102 % of control | T/C (endpoint: median survival time, dose: 300.0 mg/kg/injection, schedule: Q01DX009 (ip), vehicle: saline): 106 % of control | T/C (endpoint: median survival time, dose: 1000.0 mg/kg/injection, schedule: Q01DX009 (ip), vehicle: saline): 100 % of control and 108 % of control

NCCc1nc(N)nc(N)c1-c1ccc(Cl)cc1
T/C [5]: 103 % of control | T/C [8]: 97 % of control

COC1OCC(N=[N+]=[N-])C(OS(C)(=O)=O)C1OS(C)(=O)=O (stereo not drawn)
T/C [5]: 95 % of control | T/C [2]: 101 % of control | T/C [8]: 98 % of control and 94 % of control | T/C (endpoint: mean survival time, dose: 400.0 mg/kg/injection, schedule: Q01DX001 (ip), vehicle: saline with Tween-80): 94 % of control and 101 % of control | T/C [4]: 97 % of control
